In patent US10610539B2, “Cardiac glycoside analogs and their use in methods for inhibition of viral infection” (priority 2013, dated 2020):

Assays:
[1] = tested on: Human Foreskin Fibroblasts (HFFs); format: cell-based; settings: for cell cycle progression after mimosine arrest: HFFs treated with mimosine 48 hours, washed, treated one day
Protocol: Flow Cytometry: 1×10^5 HFFs from infected-treated or untreated conditions were washed with cold PBS. Cells were suspended in 70% pre-cooled alcohol. Cells were permeabilized in −20° C. for at least 2 hours followed by centrifugation at 5000 rpm for 5 minutes. The supernatants were discarded and cells were washed with cold PBS three times. Cells were re-suspended in 500 ul PBS, propidium iodide was added to a final concentration of 20-50 μg/ml and cells were incubated at room temperature for at least 10 minutes before applying them on flow machine.
The differences between the MTT and trypan blue assay complicated the calculation of antiviral selectivity. […] After 3 day serum starvation cells were released from serum starvation, infected with Towne HCMV and treated with digitoxin or the cardiac glycoside ouabain for 24 hours. HFFs were stained with propidium iodide and subjected to cell cycle analysis by flow cytometry.

Towne HCMV = settings: previously reported by the inventors; cited from earlier work
[2] = tested on: Herpes Simplex Virus 1 (HSV1); settings: reported; cited from earlier work
breast cancer patients = settings: women with breast cancer taking digoxin vs. 34% not taking digitalis; cited from earlier work

SMILES | cell cycle progression after mimosine arrest [1] | inhibition of Towne HCMV replication (Towne HCMV) | inhibition of Herpes Simplex Virus 1 (HSV1) [2] | death rate (breast cancer patients) [%] | cell cycle progression ([1]; HFFs released from 3 day serum starvation, infected with Towne HCMV, treated 24 hours)
Nc1nc(O)c2ncn(COC(CO)CO)c2n1 [GCV, ganciclovir] | allowed the cells to normally progress in the cell cycle | – | – | – | –
C[C@H]1O[C@@H](O[C@H]2[C@@H](O)C[C@H](O[C@H]3[C@@H](O)C[C@H](O[C@H]4CC[C@@]5(C)[C@H](CC[C@@H]6[C@@H]5C[C@@H](O)[C@]5(C)[C@@H](C7=CC(=O)OC7)CC[C@]65O)C4)O[C@@H]3C)O[C@@H]2C)C[C@H](O)[C@@H]1O [digoxin] | – | potent inhibitors of Towne HCMV replication | inhibit Herpes Simplex Virus 1 (HSV1) in nanomolar concentrations | 6 | –
C[C@@H]1O[C@@H](O[C@H]2C[C@@H](O)[C@]3(CO)[C@H]4[C@H](O)C[C@]5(C)[C@@H](C6=CC(=O)OC6)CC[C@]5(O)[C@@H]4CC[C@]3(O)C2)[C@H](O)[C@H](O)[C@H]1O [ouabain] | could not relieve HFFs from cell cycle arrest induced by mimosine | potent inhibitors of Towne HCMV replication | inhibit Herpes Simplex Virus 1 (HSV1) in nanomolar concentrations | – | arrested HFFs in G1
